According to US7737161B2, “Condensed furan compounds” (Mitsubishi Tanabe Pharma Corporation, priority 2003, dated 2010):

Target: T1, human FXa (Homo sapiens, UniProt P00742)
T1 construct: purchased Enzyme Research Laboratories, Inc
Test: Inhibitory effect on activated blood coagulation factor X (chromogenic substrate S-2222)
Format: biochemical
Settings: human FXa 0.05 U/ml, S-2222 0.5 mM, 37° C., pH 8.4
Procedure: A substrate solution was prepared by dissolving chromogenic substrate S-2222 at the concentration of 0.625 mM (final concentration 0.5 mM) in 100 mM Tris buffer (pH 8.4) containing 200 mM sodium chloride and 0.1% bovine serum albumin, and a test compound solution was prepared by dissolving a test compound in a buffer containing 10% dimethyl sulfoxide. The test compound solution (25 μl) was added to the substrate solution (200 μl). In the control group, 25 μl of the buffer containing 10% dimethyl sulfoxide was used instead of the test compound solution.
After pre-warming at 37° C. for 3 minutes, 25 μl of human FXa (Enzyme Research Laboratories, Inc.) dissolved at 0.5 U/ml in a buffer was added to the reaction mixture (final concentration of FXa: 0.05 U/ml) to initiate the reaction. During a 5-minute reaction at 37° C., the absorbance at 405 nm was monitored continuously on a 96 well microplate reader (Spectra MAX250, Molecular Devices) and the increase of absorbance was used as an index of FXa activity. In order to evaluate FXa inhibitory activity of a test compound, the 50% inhibitory concentration of the test compound for FXa activity compared to the control group (IC50 value) was calculated using analytic soft (GraphPad Prism, GraphPad Software, Inc.).

T1 sequence (P00742 235-488 limits assumed): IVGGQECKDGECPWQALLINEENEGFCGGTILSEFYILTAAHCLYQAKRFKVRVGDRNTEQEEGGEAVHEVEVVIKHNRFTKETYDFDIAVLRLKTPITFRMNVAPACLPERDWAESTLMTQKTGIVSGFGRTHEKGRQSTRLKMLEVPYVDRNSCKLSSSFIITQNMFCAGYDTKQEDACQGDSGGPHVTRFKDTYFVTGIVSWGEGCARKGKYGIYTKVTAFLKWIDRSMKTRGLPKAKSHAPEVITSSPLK
T1 sequence (P00742 41-179 partner limits assumed): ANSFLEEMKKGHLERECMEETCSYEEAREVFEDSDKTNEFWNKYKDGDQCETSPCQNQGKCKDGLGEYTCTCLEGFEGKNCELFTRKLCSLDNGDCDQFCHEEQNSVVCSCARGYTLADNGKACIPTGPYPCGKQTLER

IC50: 10.8 nM
Structure (SMILES): COc1ccc2oc(C(=O)Nc3ccc(Cl)cn3)c(NC(=O)[C@H]3CC[C@H](N(C)C)CC3)c2n1 [Example 36]
